In patent US12297194B2, “N2-phenylpyrimidine-2,4-diamine compounds, and preparation methods and methods of use thereof” (BRIDGE BIOTHERAPEUTICS, INC., priority 2021, dated 2025):

Assays:
Format in all cases: cell-based, murine
[1] = target: Ba/F3 EGFR L858R/C797S mutants (Homo sapiens, UniProt P00533, C797S/L858R, cells depend on it); assay: CellTiter-Glo cell viability, Ba/F3 EGFR L858R/C797S cells; conditions: 72 hours, read-out: Ba/F3 EGFR mutant cell (IC50, nM) L/C
Method in brief: (§1)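 IC50 values derive from CellTiter-Glo luminescence measured after 72 hours of treatment of EGFR-dependent Ba/F3 cells, dosed at concentrations up to 2000 nM starting 24 hours after seeding.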

[2] = target: Ba/F3 EGFR Del19/C797S mutants (Homo sapiens, UniProt P00533, C797S, cells depend on it, form not given); assay: CellTiter-Glo cell viability, Ba/F3 EGFR Del19/C797S cells; conditions: 72 hours, read-out: Ba/F3 EGFR mutant cell (IC50, nM) D/C
Method in brief: as §1

Ba/F3 EGFR Wild-type = Ba/F3 EGFR Wild-type (Homo sapiens, UniProt P00533); assay: CellTiter-Glo cell viability, Ba/F3 EGFR wild-type cells; conditions: 72 hours, read-out: Ba/F3 EGFR mutant cell (IC50, nM) WT
Method in brief: as §1

[3] = target: Ba/F3 EGFR L858R/T790M/C797S mutants (Homo sapiens, UniProt P00533, T790M/C797S/L858R, cells depend on it); assay: CellTiter-Glo cell viability, Ba/F3 EGFR L858R/T790M/C797S cells; conditions: 72 hours, read-out: Ba/F3 EGFR mutant cell (IC50, nM) L/T/C
Method in brief: as §1

[4] = target: Ba/F3 EGFR Del19/T790M/C797S mutants (Homo sapiens, UniProt P00533, T790M/C797S, cells depend on it, form not given); assay: CellTiter-Glo cell viability, Ba/F3 EGFR Del19/T790M/C797S cells; conditions: 72 hours, read-out: Ba/F3 EGFR mutant cell (IC50, nM) D/T/C
Method in brief: as §1

[5] = target: Ba/F3 EGFR Del19/T790M mutants (Homo sapiens, UniProt P00533, T790M, cells depend on it, form not given); assay: CellTiter-Glo cell viability, Ba/F3 EGFR Del19/T790M cells; conditions: 72 hours, read-out: Ba/F3 EGFR mutant cell (IC50, nM) D/T
Description: In order to evaluate an inhibitory ability on wild-type Ba/F3 EGFR and Ba/F3 EGFR mutations in Ba/F3 cell lines by the compounds of Formula 1, the experiment was carried out as described below.
The measurement of activities on Ba/F3 cells harboring wild-type EGFR and EGFR mutants by the compounds of the present invention were determined utilizing the CELLTITER-GLO™ system from Promega, as follows. The CELLTITER-GLO™ assay is a method for measuring the ATP present in cells to determine the cell viability. Ba/F3 EGFR wild-type and Ba/F3 EGFR L858R/C797S (L/C), Ba/F3 EGFR L858R/T790M/C797S (L/T/C), Ba/F3 EGFR Del19/T790M (D/T), Ba/F3 EGFR Del19/C797S (D/C), Ba/F3 EGFR Del19/T790M/C797S (D/T/C) mutant cell lines were maintained in RPMI1640, containing […], 1% penicillin-streptomycin, […] puromycin. Cells were grown in a humidified incubator at 37° C. with […].
The analysis of an EGFR inhibitory activity by the compounds was carried out in accordance with the analysis reaction recipe below.
2500 cells/90 μL were seeded in 96 well cell culture plate, and after 24 hours, treated with the compounds represented by Formula 1 in concentrations of 0, 0.3, 0.9, 2.7, 8.2, 24.7, 74.1, 222.2, 666.7, 2000 (nM). After the reaction of 72 hours, the plate was incubated for 30 minutes at ambient temperature, and then, was further treated with 100 μL of the CELLTITER-GLO™ reagent and was shaken for 10 minutes at ambient temperature. Finally, measurement of the luminescence values were obtained using the SPECTRAMAX™ iD3 (Molecular Devices), and the IC50 values of the compound were analyzed using the GraphPad Prism program (version 9.0.2, GraphPad Software, Inc.).

Sequence of Ba/F3 EGFR Del19/C797S mutants (P00533 with tags, fused parts or gaps DEL746-750/C797S, form open): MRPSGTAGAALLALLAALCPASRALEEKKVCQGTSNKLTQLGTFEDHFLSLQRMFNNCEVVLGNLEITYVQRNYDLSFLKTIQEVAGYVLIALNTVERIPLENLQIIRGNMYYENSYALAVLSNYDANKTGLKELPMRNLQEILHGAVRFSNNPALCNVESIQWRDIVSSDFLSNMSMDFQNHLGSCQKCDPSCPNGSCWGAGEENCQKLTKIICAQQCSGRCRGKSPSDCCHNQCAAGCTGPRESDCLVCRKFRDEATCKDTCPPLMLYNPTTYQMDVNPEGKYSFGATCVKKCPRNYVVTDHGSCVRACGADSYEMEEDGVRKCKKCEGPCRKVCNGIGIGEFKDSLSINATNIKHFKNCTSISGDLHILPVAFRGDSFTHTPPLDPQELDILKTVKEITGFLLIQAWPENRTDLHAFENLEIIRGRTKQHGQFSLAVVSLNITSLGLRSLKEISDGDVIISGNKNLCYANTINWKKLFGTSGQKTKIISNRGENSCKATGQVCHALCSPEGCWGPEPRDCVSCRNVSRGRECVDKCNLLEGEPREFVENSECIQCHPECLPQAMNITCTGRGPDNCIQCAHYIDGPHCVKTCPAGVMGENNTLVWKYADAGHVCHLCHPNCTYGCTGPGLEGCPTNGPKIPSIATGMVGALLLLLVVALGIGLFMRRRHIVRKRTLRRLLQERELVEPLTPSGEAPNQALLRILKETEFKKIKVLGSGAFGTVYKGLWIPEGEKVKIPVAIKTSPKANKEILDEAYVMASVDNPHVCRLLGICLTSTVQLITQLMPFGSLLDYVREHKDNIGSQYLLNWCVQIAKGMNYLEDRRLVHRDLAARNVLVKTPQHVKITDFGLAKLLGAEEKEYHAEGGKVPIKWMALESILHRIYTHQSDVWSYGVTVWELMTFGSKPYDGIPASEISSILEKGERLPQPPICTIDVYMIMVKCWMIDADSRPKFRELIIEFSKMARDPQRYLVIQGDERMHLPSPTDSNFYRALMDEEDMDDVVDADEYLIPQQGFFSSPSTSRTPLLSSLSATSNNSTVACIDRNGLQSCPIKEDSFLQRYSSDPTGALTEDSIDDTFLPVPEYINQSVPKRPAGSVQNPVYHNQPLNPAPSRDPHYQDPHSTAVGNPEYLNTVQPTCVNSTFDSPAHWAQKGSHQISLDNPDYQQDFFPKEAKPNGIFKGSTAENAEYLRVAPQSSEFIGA
Sequence of Ba/F3 EGFR Del19/T790M mutants (P00533 with tags, fused parts or gaps DEL746-750/T790M, form open): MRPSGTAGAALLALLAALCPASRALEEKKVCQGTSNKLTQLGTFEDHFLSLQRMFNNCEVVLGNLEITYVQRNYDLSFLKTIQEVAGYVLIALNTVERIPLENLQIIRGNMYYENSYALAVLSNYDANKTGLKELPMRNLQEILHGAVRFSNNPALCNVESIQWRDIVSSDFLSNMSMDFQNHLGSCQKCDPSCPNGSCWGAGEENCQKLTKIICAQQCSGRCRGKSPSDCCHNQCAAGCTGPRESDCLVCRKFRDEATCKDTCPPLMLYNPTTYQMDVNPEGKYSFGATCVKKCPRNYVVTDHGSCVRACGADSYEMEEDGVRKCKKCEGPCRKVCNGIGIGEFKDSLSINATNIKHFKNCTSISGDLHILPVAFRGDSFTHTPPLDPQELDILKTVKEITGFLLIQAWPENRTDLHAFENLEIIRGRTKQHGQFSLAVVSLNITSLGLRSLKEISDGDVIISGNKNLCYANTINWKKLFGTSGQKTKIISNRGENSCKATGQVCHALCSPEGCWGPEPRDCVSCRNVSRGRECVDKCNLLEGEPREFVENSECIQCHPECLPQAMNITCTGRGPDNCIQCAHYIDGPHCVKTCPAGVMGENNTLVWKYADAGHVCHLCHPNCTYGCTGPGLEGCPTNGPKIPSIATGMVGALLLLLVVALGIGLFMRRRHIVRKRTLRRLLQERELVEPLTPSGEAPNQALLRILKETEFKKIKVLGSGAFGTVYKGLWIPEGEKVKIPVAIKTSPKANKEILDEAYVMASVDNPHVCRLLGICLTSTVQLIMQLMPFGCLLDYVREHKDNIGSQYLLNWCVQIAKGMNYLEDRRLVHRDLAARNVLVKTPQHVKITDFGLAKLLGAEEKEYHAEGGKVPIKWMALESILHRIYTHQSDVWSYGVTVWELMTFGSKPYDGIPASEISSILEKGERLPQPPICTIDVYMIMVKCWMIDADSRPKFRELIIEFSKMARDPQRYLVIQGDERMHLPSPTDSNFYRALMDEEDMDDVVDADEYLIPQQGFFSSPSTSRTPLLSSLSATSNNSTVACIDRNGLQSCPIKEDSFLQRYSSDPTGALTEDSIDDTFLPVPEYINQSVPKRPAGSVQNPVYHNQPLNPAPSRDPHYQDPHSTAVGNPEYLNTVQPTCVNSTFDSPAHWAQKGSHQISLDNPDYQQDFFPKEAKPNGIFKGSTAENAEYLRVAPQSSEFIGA
Sequence of Ba/F3 EGFR Wild-type (P00533 whole entry, change not shown): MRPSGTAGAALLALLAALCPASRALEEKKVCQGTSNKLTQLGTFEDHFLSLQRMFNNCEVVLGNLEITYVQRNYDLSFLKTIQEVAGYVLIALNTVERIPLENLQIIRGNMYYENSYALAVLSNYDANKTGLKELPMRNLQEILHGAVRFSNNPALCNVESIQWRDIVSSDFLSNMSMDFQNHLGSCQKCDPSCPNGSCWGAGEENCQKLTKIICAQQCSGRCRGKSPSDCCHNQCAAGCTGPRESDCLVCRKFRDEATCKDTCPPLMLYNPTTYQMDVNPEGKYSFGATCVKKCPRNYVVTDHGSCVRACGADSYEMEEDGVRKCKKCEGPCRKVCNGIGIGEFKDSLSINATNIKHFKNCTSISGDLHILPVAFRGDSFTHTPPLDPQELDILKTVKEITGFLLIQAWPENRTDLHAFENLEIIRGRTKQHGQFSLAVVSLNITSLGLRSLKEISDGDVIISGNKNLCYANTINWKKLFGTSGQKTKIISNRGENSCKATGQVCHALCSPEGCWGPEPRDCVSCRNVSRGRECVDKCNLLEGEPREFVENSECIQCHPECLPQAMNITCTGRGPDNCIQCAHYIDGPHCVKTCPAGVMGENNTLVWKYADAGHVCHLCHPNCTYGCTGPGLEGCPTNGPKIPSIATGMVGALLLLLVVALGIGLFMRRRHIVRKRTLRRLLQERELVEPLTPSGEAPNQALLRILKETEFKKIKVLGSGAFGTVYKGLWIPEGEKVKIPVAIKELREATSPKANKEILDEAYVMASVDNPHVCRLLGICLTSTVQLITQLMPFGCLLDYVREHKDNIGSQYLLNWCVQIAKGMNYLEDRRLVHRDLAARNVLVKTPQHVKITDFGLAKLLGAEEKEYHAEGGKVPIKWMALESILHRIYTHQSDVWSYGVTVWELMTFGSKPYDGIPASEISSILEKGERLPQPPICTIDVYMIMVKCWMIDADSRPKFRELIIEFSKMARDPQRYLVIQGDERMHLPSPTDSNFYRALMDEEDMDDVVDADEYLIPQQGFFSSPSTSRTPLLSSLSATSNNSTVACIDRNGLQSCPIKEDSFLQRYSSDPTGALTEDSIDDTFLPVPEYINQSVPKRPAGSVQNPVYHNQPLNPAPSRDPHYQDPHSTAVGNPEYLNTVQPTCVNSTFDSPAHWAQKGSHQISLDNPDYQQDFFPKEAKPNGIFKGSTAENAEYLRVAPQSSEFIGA
Sequence of Ba/F3 EGFR L858R/C797S mutants (P00533 whole entry C797S/L858R): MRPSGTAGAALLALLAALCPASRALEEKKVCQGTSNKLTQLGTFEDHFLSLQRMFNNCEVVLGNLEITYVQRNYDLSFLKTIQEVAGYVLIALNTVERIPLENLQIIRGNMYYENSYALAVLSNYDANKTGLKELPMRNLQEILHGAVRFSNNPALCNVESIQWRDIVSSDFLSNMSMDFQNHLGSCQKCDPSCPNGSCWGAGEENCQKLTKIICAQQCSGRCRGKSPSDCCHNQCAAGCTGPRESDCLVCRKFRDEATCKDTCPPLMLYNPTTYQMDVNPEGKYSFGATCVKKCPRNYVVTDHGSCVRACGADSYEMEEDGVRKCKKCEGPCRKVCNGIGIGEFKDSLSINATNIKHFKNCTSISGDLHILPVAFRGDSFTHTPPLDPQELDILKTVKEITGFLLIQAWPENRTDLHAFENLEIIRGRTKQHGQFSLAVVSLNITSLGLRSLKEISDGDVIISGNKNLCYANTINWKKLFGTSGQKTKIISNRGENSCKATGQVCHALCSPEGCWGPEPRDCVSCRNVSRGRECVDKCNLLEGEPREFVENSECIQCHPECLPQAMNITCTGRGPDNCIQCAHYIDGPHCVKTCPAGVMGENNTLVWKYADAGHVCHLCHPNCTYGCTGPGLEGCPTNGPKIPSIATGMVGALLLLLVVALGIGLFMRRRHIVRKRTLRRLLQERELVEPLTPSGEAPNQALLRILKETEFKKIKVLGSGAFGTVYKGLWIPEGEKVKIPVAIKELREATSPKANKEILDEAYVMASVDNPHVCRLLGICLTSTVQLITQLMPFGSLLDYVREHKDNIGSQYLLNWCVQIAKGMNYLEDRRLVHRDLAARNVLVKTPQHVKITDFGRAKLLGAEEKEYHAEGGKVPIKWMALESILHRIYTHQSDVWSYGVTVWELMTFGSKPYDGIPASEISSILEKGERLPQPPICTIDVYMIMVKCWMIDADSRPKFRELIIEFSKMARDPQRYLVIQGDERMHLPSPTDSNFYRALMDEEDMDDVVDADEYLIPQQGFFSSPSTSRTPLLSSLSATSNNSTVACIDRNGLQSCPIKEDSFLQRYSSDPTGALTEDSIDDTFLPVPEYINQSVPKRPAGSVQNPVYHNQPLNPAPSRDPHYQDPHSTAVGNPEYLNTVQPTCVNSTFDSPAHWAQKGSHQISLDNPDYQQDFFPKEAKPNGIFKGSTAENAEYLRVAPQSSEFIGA

SMILES | GI50 [1] [nM] | GI50 [2] [nM] | GI50 (Ba/F3 EGFR Wild-type) [nM] | GI50 [3] [nM] | GI50 [4] [nM] | GI50 [5] [nM]
COc1cc(N2CCC(N3CCN(C)CC3)CC2)c(C)cc1Nc1ncc(Br)c(Nc2ccc3nccnc3c2NS(C)(=O)=O)n1 [Example A4, N-(6-((5-bromo-2-((2-methoxy-5-methyl-4-(4-(4-methylpiperazin-1-yl)piperidin-1-yl)phenyl)amino)pyrimidin-4-yl)amino)quinoxalin-5-yl)methanesulfonamide] | 34 | 12 | 249 | 6 | 1 | 3
COc1cc(N2CCC(N3CCCC3)CC2)c(C)cc1Nc1ncc(Cl)c(Nc2ccc3nccnc3c2NS(C)(=O)=O)n1 [Example A30, N-(6-((5-chloro-2-((2-methoxy-5-methyl-4-(4-(pyrrolidin-1-yl)piperidin-1-yl)phenyl)amino)pyrimidin-4-yl)amino)quinoxalin-5-yl)methanesulfonamide] | 83 | 28 | 266 | 23 | 100 | 31
COc1cc(N2CCC(N3CCN(CC(F)F)CC3)CC2)ccc1Nc1ncc(Cl)c(Nc2ccc3nccnc3c2NS(C)(=O)=O)n1 [Example A37, N-(6-((5-chloro-2-((4-(4-(4-(2,2-difluoroethyl)piperazin-1-yl)piperidin-1-yl)-2-methoxyphenyl)amino)pyrimidin-4-yl)amino)quinoxalin-5-yl)methane sulfonamide] | 451 | 126 | 734 | 640 | 205 | 174
CCc1cc(Nc2ncc(Br)c(Nc3cccc(OC)c3N(C)S(C)(=O)=O)n2)c(OC)cc1N1CCC(N2CCN(C)CC2)CC1 [Example C7, N-(2-((5-bromo-2-((5-ethyl-2-methoxy-4-(4-(4-methylpiperazin-1-yl)piperidin-1-yl)phenyl)amino)pyrimidin-4-yl)amino)-6-methoxyphenyl)-N-methylmethane sulfonamide] | 52 | 10 | 534 | 24 | 10 | 6
CCCc1cc(Nc2ncc(Cl)c(Nc3cccc(OC)c3NS(C)(=O)=O)n2)c(OC)cc1N1CCC(N(C)C)CC1 [Example C19, N-(2-((5-chloro-2-((4-(4-(dimethylamino)piperidin-1-yl)-2-methoxy-5-propylphenyl)amino)pyrimidin-4-yl)amino)-6-methoxyphenyl)methanesulfonamide] | 30 | 12 | 668 | 54 | 7 | 9
CCc1cc(Nc2ncc(Br)c(Nc3cccc(OC)c3N(C)S(C)(=O)=O)n2)c(OC)cc1N1CCC(N2CCN(C)CC2)CC1 [Example C29, N-(2-((5-bromo-2-((5-ethyl-2-methoxy-4-(4-(4-methylpiperazin-1-yl)piperidin-1-yl)phenyl)amino)pyrimidin-4-yl)amino)-6-methoxyphenyl)-N-methylmethane sulfonamide] | 76 | 5 | 669 | 21 | 5 | 7
COc1cc(OC2CNC2)ccc1Nc1ncc(Cl)c(Nc2ccc3nccnc3c2NS(C)(=O)=O)n1 [Example D6, N-(6-((2-((4-(azetidin-3-yloxy)-2-methoxyphenyl)amino)-5-chloropyrimidin-4-yl)amino)quinoxalin-5-yl)methanesulfonamide] | 1130 | 706 | > 2000 | 1080 | 592 | 800
CCc1cc(Nc2ncc(Br)c(Nc3ccc4nccnc4c3NS(C)(=O)=O)n2)c(OC)cc1N1CCC(N2CC3CCC2CN3C)CC1 (stereo not drawn) [Example A46, N-(6-((5-bromo-2-((5-ethyl-2-methoxy-4-(4-(5-methyl-2,5-diazabicyclo[2.2.2]octan-2-yl)piperidin-1-yl)phenyl)amino)pyrimidin-4-yl)amino)quinoxalin-5-yl)methanesulfonamide] | 113 | 12 | 739 | 43 | 8 | 7
CCS(=O)(=O)Nc1cc(OC)ccc1Nc1nc(Nc2cc(C)c(N3CCC(N4CCN(C)CC4)CC3)cc2OC)ncc1Cl [Example C17, N-(2-((5-chloro-2-((2-methoxy-5-methyl-4-(4-(4-methylpiperazin-1-yl)piperidin-1-yl)phenyl)amino)pyrimidin-4-yl)amino)-5-methoxyphenyl)ethanesulfonamide] | 52 | 9 | 655 | 40 | 14 | 7
CCCc1cc(Nc2ncc(Br)c(Nc3ccc4nccnc4c3N(C)S(C)(=O)=O)n2)c(OC)cc1N1CCC(N(C)C)CC1 [Example B24, N-(6-((5-bromo-2-((4-(4-(dimethylamino)piperidin-1-yl)-2-methoxy-5-propylphenyl)amino)pyrimidin-4-yl)amino)quinoxalin-5-yl)-N-methylmethanesulfonamide] | 185 | 17 | 908 | 65 | 20 | 23
CCc1cc(Nc2ncc(Cl)c(Nc3ccc4nccnc4c3N(C)S(C)(=O)=O)n2)c(OC)cc1N1CCC(N2CCCC2)CC1 [Example A43, N-(6-((5-chloro-2-((5-ethyl-2-methoxy-4-(4-(pyrrolidin-1-yl)piperidin-1-yl)phenyl)amino)pyrimidin-4-yl)amino)quinoxalin-5-yl)-N-methylmethanesulfonamide] | 28 | 6 | 507 | 35 | 5 | 8
COc1cc(N2CCC(N(C)C)CC2)c(C)cc1Nc1ncc(Br)c(Nc2ccc3nccnc3c2NS(C)(=O)=O)n1 [Example B1, N-(6-((5-bromo-2-((4-(4-(dimethylamino)piperidin-1-yl)-2-methoxy-5-methylphenyl)amino)pyrimidin-4-yl)amino)quinoxalin-5-yl)methanesulfonamide] | 64 | 38 | 302 | 28 | 7 | 8
CCS(=O)(=O)Nc1c(Nc2nc(Nc3cc(C)c(N4CCC(N5CCN(C)CC5)CC4)cc3OC)ncc2Cl)cccc1OC [Example C16, N-(2-((5-chloro-2-((2-methoxy-5-methyl-4-(4-(4-methylpiperazin-1-yl)piperidin-1-yl)phenyl)amino)pyrimidin-4-yl)amino)-6-methoxyphenyl)ethanesulfonamide] | 51 | 9 | 486 | 34 | 10 | 6
CCc1cc(Nc2ncc(Cl)c(Nc3ccc4nccnc4c3NS(C)(=O)=O)n2)c(OC)cc1N1CCC(N2CC3CCC2CN3C)CC1 (stereo not drawn) [Example A45, N-(6-((5-chloro-2-((5-ethyl-2-methoxy-4-(4-(5-methyl-2,5-diazabicyclo[2.2.2]octan-2-yl)piperidin-1-yl)phenyl)amino)pyrimidin-4-yl)amino)quinoxalin-5-yl)methanesulfonamide] | 103 | 10 | 734 | 71 | 7 | 9
